The nature of data set [1]: Two-period crossover study in GERD patients: plasma omeprazole PK. In kind it is in vivo, human. To be noted: for AUC: human, plasma, oral, read-out: median AUC (25-75%). The protocol: (§1) Sixteen patients with a history of GERD, all of whom experienced recurrent nighttime reflux for at least three months while taking proton pump inhibitors, were enrolled. […] Ambulatory 24-hour gastric pH was recorded and blood samples taken for PK analysis on days 6-7. Following a seven day washout the patients were crossed over to the alternate treatment. NAB was defined as an intra-gastric pH<4 for more than 1 hour between 22:00 hour and 06:00 hour (10:00 PM and 6:00 AM).

A further data set concerns pH of the stomach. The settings on record: cited from earlier work.
For a further data set, the system named is basal acid output. To be noted: 20 mg dose, healthy volunteers and patients, cited from earlier work.
The conditions of data set [2]: pH 11 phosphate buffer; cited from earlier work.
Data set [3] can be described thus: Four-way crossover pharmacokinetic study of omeprazole (limited colonic absorption). In kind it is in vivo. To be noted: human, plasma, 20 mg; for AUC: mean±SD. An excerpt:
Nine healthy subjects were entered into the study with an intention to complete treatment of at least six subjects. […] A period of at least four days for washout was allowed between dosing.

The subject of data set [4] is NAB (intra-gastric pH<4 for more than 1 hour between 22:00 and 06:00). In words: Two-period crossover study in GERD patients: ambulatory 24-hour gastric pH, NAB. In kind it is in vivo, human. As to the method: as §1, with “enrolled. The study was an open label crossover study in which 14 of the 16 patients participated in each of two treatment arms separated by a washout period.” for “enrolled.”

The test system of another data set is nocturnal heartburn. To be noted: cited from earlier work.

Where two headings read alike, the source gives them in different places.

Usually AUC stands for concentration integrated over time. One may read the Tmax as the time at which the peak concentration occurs. As a reminder, the bioavailability is the share of a dose that reaches the circulation, judged against a reference dose that is usually intravenous. With `COc1ccc2[nH]c([S+]([O-])Cc3ncc(C)c(OC)c3C)nc2c1` (stereo not drawn) [omeprazole, 5-methoxy-2-[[(4-methoxy-3,5-dimethyl-2-pyridinyl)methyl]sulfinyl]-1H-benzimidazole], the “patients who did not start absorbing omeprazole until 4-5 hours after the initial dose” value in data set [1] (20 mg at dinner + 20 mg 4 hours later, of the 14 patients (FIG. 7B)) turned out to be 36%. Also, the “blood levels of omeprazole between 2:00 and 3:00 AM” value in data set [1] (40 mg single dose arm, the three patients who experienced NAB) is reported as “undetectable levels”. In addition, the “time until start of omeprazole absorption after the initial 20 mg dose” value in data set [1] (five of the 14 patients of the two dose arm (FIG. 7B)) lay within 4 to 5 h. Further, the AUC in data set [1] (20 mg at dinner + 20 mg four hours later for six days, all patients, n = 14) was found to be 1860 ng·h/mL; in data set [1] (20 mg at dinner + 20 mg four hours later, patients with NAB (n = 5)) it was 1670 ng·h/mL; in data set [1] (20 mg at dinner + 20 mg four hours later, patients without NAB (n = 9)) it was 1910 ng·h/mL; in data set [3] (iv, (iv) 20 mg omeprazole delivered to the ascending colon via ENTERION capsule), 242 ± 323 ng·h/mL; in data set [3] (oral, (i) SCR: 20 mg omeprazole divided into 17 doses at 30 minute intervals (8 hr), fed state, n = 7), 568 ± 727 ng·h/mL; in data set [3] (oral, (ii) 20 mg omeprazole in the fed state, n = 7), 849 ± 999 ng·h/mL. This molecule displayed an AUC in data set [3] (oral, (iii) 20 mg omeprazole in the fasted state, n = 7) of 969 ± 1090 ng·h/mL. Moreover, the “nighttime pH control of the stomach, time with pH>4” value in the data set with pH of the stomach (40 mg before breakfast) was 24 % of the time; with pH of the stomach (40 mg before dinner), 69 % of the time; in the data set on pH of the stomach (twice-daily (BID) dosing, 20 mg before breakfast and dinner) it was 80 % of the time. The “decrease in basal acid output” value is 78% in the data set with basal acid output (2-6 hours after dosing) and 50%-80% in the data set on basal acid output (24 hours after dosing). The “stability at pH 11” value in data set [2] was “stable at pH 11”. Besides, the Tmax in data set [3] (iv, (iv) Colonic) was 1.8 h; in data set [3] (oral, (i) SCR), 4.9 h; in data set [3] (oral, (ii) Fed), 3.7 h. The bioavailability is 22 ± 12% in data set [3] (iv, (iv) Colonic, compared to fasted state, read-out: Relative bioavailability); 96 ± 7% in data set [3] (oral, 20 mg fed, one of the subjects removed from the analysis, read-out: relative bioavailability in the fed state compared to fasting); 61 ± 15% in data set [3] (oral, (i) SCR, fed state, compared to fasted state, read-out: Relative bioavailability); 90 ± 16% in data set [3] (oral, (ii) Fed, compared to fasted state, read-out: Relative bioavailability); 100% in data set [3] (oral, (iii) Fasted (reference arm), read-out: Relative bioavailability); 58% in data set [3] (other: ENTERION capsule activated in the terminal ileum, one subject, ENTERION capsule activated in the terminal ileum, read-out: relative bioavailability compared to fasted state). The “patients who experienced inhibition of NAB” value in data set [4] (20 mg at dinner + 20 mg 4 hours later, the 9 patients with two-dose absorption profile (FIG. 7A)) was 100%. Also, the “occurrence of NAB” value is on record as “Three of the patients experienced NAB” in data set [4] (40 mg single dose 30 minutes before dinner for six days, 14 patients); “none experienced NAB” in data set [4] (two dose arm, nine patients who achieved blood levels from both doses); “All five of those patients experienced NAB” in data set [4] (two dose arm, the five patients with delayed absorption).

For the molecule `COc1ccc2nc([S@@+]([O-])Cc3ncc(C)c(OC)c3C)[nH]c2c1` [esomeprazole], the “GERD patients with relief of nocturnal heartburn” value with nocturnal heartburn is listed as 50%.
